In brackets after ≈: the same amount, converted by molar mass.
Experiments:
[1] = test system: L6; assay: Cytotoxicity against rat L6 cells after 2 days by CellTiter-Glo luminescent cell viability assay; assay type: ADME, cell-based; settings: L6, 48 h
[2] = test system: Mycobacterium tuberculosis; assay: Potency index, ratio of compound MIC to metronidazole MIC for antitubercular activity against Mycobacterium tuberculosis H37Rv ATCC 27294 under low oxygen condition; assay type: functional
[3] = test system: Mycobacterium tuberculosis; assay: Antitubercular activity against luxABCDE expressing Mycobacterium tuberculosis H37Rv infected in human THP1 cells measured after 3 days by luminescence assay; assay type: functional, organism-based; settings: THP-1, 72 h
[4] = test system: Mycobacterium tuberculosis; assay: Bactericidal activity against Mycobacterium tuberculosis H37Rv ATCC 27294 assessed as concentration required for 2 log kill after 21 days under aerobic condition by colony forming assay; assay type: functional; settings: for MBC: H37Rv ATCC 27294, 504 h
[5] = test system: Mycobacterium tuberculosis; assay: Antitubercular activity against Mycobacterium tuberculosis H37Rv ATCC 27294 after 10 days under low oxygen condition followed by incubation under aerobic condition for 28 hrs by LORA; assay type: functional, organism-based
[6] = test system: THP-1; assay: Cytotoxicity against human THP1 cells after 3 days by luminescence assay; assay type: cell-based; settings: THP-1, 72 h
[7] = test system: Mycobacterium tuberculosis; assay: Antitubercular activity against Mycobacterium tuberculosis H37Rv ATCC 27294 after 5 days under aerobic condition; assay type: functional, organism-based; settings: for IC50 / IC90 / MIC: H37Rv ATCC 27294, 120 h
[8] = test system: Vero; assay: Cytotoxicity against African green monkey Vero cells after 2 days by CellTiter-Glo luminescent cell viability assay; assay type: ADME, cell-based; settings: Chlorocebus sabaeus, 48 h
[9] = test system: Mycobacterium tuberculosis; assay: Antitubercular activity against luxABCDE expressing Mycobacterium tuberculosis H37Rv infected in mouse J774 macrophages assessed as log reduction in bacterial colonies at 20 uM measured after 4 days under aerobic condition by luminescence assay; assay type: functional
[10] = test system: Mycobacterium tuberculosis; assay: Antitubercular activity against luxABCDE expressing Mycobacterium tuberculosis H37Rv infected in mouse J774 macrophages assessed as log reduction in bacterial colonies at 200 uM measured after 4 days under aerobic condition by luminescence assay; assay type: functional
[11] = in vitro; settings: human, Caco-2
Description: Apparent permeability of the compound across apical side to basolateral side in human Caco2 cells monolayer at 10 uM after 2 hrs by LC-MS/MS analysis

[12] = Half life in human liver S9 microsomes at 1 uM in absence of NADPH by LC-MS/MS analysis
[13] = Half life in human liver S9 microsomes at 1 uM in presence of NADPH by LC-MS/MS analysis
[14] = Intrinsic clearance in human liver S9 microsomes at 1 uM in absence of NADPH by LC-MS/MS analysis; assay type: ADME, S9 microsome; settings: read-out: CLH
[15] = in vitro; settings: human, Caco-2; remark: listed apart in the source
Description: Efflux ratio of apparent permeability from basolateral to apical over apical to basolateral side in human Caco2 cells monolayer at 10 uM after 1 hr by LC-MS/MS analysis

[16] = in vitro; settings: human, Caco-2; remark: listed apart in the source
Description: Efflux ratio of apparent permeability from basolateral to apical over apical to basolateral side in human Caco2 cells monolayer at 10 uM after 2 hrs by LC-MS/MS analysis

[17] = in vitro; settings: human, Caco-2; remark: listed apart in the source
Description: Apparent permeability of the compound across basolateral side to apical side in human Caco2 cells monolayer at 10 uM after 2 hrs by LC-MS/MS analysis

[18] = Apparent permeability of the compound across apical side to basolateral side in human Caco2 cells monolayer at 10 uM after 1 hr by LC-MS/MS analysis; assay type: ADME, cell-based; settings: Caco-2
[19] = test system: HepG2; assay: Cytotoxicity against human HepG2 cells at 100 uM after 3 days by CellTiter-Glo luminescent cell viability assay; assay type: cell-based; settings: HepG2, 72 h
[20] = Intrinsic clearance in human liver S9 microsomes at 1 uM in presence of NADPH by LC-MS/MS analysis; assay type: ADME, S9 microsome; settings: read-out: CLH
[21] = test system: Mycobacterium tuberculosis; assay: Potency index, ratio of compound MIC to ethambutol MIC for antitubercular activity against Mycobacterium tuberculosis H37Rv ATCC 27294 under aerobic condition; assay type: functional
[22] = in vitro; settings: human, THP1 cells
Description: Selectivity index, ratio of IC50 for human THP1 cells to IC50 for Mycobacterium tuberculosis H37Rv under aerobic condition

[23] = Fraction unbound in human plasma at 5 uM after 4 hrs by LC-MS/MS analysis; assay type: ADME, cell-free
[24] = Protein binding in human plasma at 5 uM after 4 hrs by LC-MS/MS analysis
[25] = Apparent permeability of the compound across basolateral side to apical side in human Caco2 cells monolayer at 10 uM after 1 hr by LC-MS/MS analysis; assay type: ADME, cell-based; settings: Caco-2

SMILES: O=C(CCn1cnc([N+](=O)[O-])n1)Nc1ccc(Oc2ccc(F)cc2)cc1
- IC50 [1]: 23 µM
- Ratio [2]: 6 - 9
- IC50 [3]: 3.8 µM
- IC90 [3]: 16 µM
- MBC [4]: 20 µM (≈ 7.43 µg/mL)
- Activity ([4]; TDE = time-dependent effect): Tde
- IC50 [5]: 25 µM
- IC90 [5]: 28 µM
- MIC [5]: 31 µM (≈ 11.5 µg/mL)
- IC50 [6]: 21 µM
- IC50 [7]: 22 to 25 µM
- IC90 [7]: 28 to 34 µM
- MIC [7]: 31 to 32 µM (≈ 11.5 to 11.9 µg/mL)
- Activity ([7]; TDE = time-dependent effect): Tde

SMILES: O=C(Cn1ccnc1[N+](=O)[O-])Nc1ccc(Oc2ccc(F)cc2)cc1
- IC50 [8]: 56 µM
- MBC [4]: 100 µM (≈ 35.6 µg/mL)
- IC50 [5]: 17 µM
- IC90 [5]: 31 µM
- MIC [5]: 61 µM (≈ 21.7 µg/mL)
- log(activity) [9]: 2.2
- IC50 [7]: 44 µM
- IC90 [7]: 89 µM
- MIC [7]: 80 µM (≈ 28.5 µg/mL)

SMILES: O=C(Cn1ccnc1[N+](=O)[O-])Nc1ccc(Oc2ccccc2)cc1
- IC50 [1]: 63 µM
- IC50 [8]: 98 µM
- MBC [4]: 100 µM (≈ 33.8 µg/mL)
- IC50 [5]: 14 µM
- IC90 [5]: 71 µM
- MIC [5]: > 200 µM
- log(activity) [10]: 2.7
- IC50 [7]: 60 µM
- IC90 [7]: 90 µM
- MIC [7]: 98 µM (≈ 33.2 µg/mL)

SMILES: O=C(CCn1cnc([N+](=O)[O-])n1)Nc1cccc(OCc2ccccc2)c1
- IC50 [1]: 40 µM
- IC50 [3]: 1.3 µM
- IC90 [3]: 2.9 µM
- Papp A→B at 2 h, 10 µM [11]: 15.8 ×10⁻⁶ cm/s
- Activity [4]: Dose-dependent effect
- MBC [4]: 0.75 µM (≈ 0.276 µg/mL)
- half-life at 1 µM [12]: > 180 min
- IC50 [5]: 9.2 µM
- IC90 [5]: 41 µM
- MIC [5]: > 200 µM
- half-life at 1 µM [13]: 124 min
- microsomal CLint at 1 µM [14]: < 12.8 µL/min/mg
- efflux ratio at 1 h, 10 µM [15]: 0.79
- efflux ratio at 2 h, 10 µM [16]: 0.67
- Papp B→A at 2 h, 10 µM [17]: 10.5 ×10⁻⁶ cm/s
- Papp A→B at 1 h, 10 µM [18]: 22.2 ×10⁻⁶ cm/s
- IC50 [19]: > 100 µM
- microsomal CLint at 1 µM [20]: 18.7 µL/min/mg
- IC50 [6]: > 50 µM
- Ratio [21]: 2
- selectivity ratio [22]: > 10
- fraction unbound at 4 h, 5 µM [23]: 0.042
- fraction unbound at 4 h, 5 µM [24]: 0.033
- Activity [7]: Dose-dependent effect
- IC50 [7]: 1.7 to 3.2 µM
- IC90 [7]: 2.8 to 3.6 µM
- MIC [7]: 3 to 4.1 µM (≈ 1.1 to 1.51 µg/mL)
- Papp B→A at 1 h, 10 µM [25]: 17.6 ×10⁻⁶ cm/s

SMILES: O=C(Cn1cnc([N+](=O)[O-])n1)Nc1ccc(Oc2ccc(Cl)cc2)cc1
- IC50 [8]: 19 µM
- MBC [4]: 100 µM (≈ 37.4 µg/mL)
- IC50 [5]: 13 µM
- IC90 [5]: 94 µM
- MIC [5]: > 200 µM
- log(activity) [10]: 2.6
- IC50 [7]: 51 µM
- IC90 [7]: 100 µM
- MIC [7]: 94 µM (≈ 35.1 µg/mL)

SMILES: O=C(CCn1cnc([N+](=O)[O-])n1)Nc1ccc(Oc2ccc(Cl)cc2)cc1
- IC50 [1]: 17 µM
- Ratio [2]: 6 - 9
- IC50 [3]: 3.4 µM
- IC90 [3]: 10 µM
- MBC [4]: 20 µM (≈ 7.76 µg/mL)
- Activity ([4]; TDE = time-dependent effect): Tde
- IC50 [5]: 25 µM
- IC90 [5]: 27 µM
- MIC [5]: 30 µM (≈ 11.6 µg/mL)
- IC50 [6]: 14 µM
- IC50 [7]: 15 to 22 µM
- IC90 [7]: 22 to 24 µM
- MIC [7]: 24 to 26 µM (≈ 9.31 to 10.1 µg/mL)
- Activity ([7]; TDE = time-dependent effect): Tde

SMILES: O=C(Cn1ccnc1[N+](=O)[O-])Nc1ccc(Oc2ccc(Cl)cc2)cc1
- Ratio [2]: 6 - 9
- IC50 [8]: 30 µM
- MBC [4]: 100 µM (≈ 37.3 µg/mL)
- IC50 [5]: 17 µM
- IC90 [5]: 24 µM
- MIC [5]: 35 µM (≈ 13 µg/mL)
- log(activity) [9]: 2.6
- IC50 [7]: 81 µM
- IC90 [7]: > 200 µM
- MIC [7]: > 200 µM

SMILES: O=C(Cn1cnc([N+](=O)[O-])n1)N1CCN(Cc2ccc(C(F)(F)F)cc2)CC1
- IC50 [3]: 13 µM
- IC90 [3]: 14 µM
- MBC [4]: 20 µM (≈ 7.97 µg/mL)
- half-life at 1 µM [12]: > 180 min
- IC50 [5]: 62 µM
- IC90 [5]: 100 µM
- MIC [5]: 170 µM (≈ 67.7 µg/mL)
- half-life at 1 µM [13]: > 180 min
- IC50 [19]: > 100 µM
- IC50 [6]: > 50 µM
- fraction unbound at 4 h, 5 µM [24]: 0.179
- IC50 [7]: 25 µM
- IC90 [7]: 28 µM
- MIC [7]: 27 µM (≈ 10.8 µg/mL)

Reference: ChEMBL document CHEMBL4177599, “The antitubercular activity of various nitro(triazole/imidazole)-based compounds” (Bioorg Med Chem, 2017)
